≈ marks a conversion by molar mass, not a printed value. Where “and” joins values, the source holds several entries; their conditions need not be identical. Identical values can stand only once. Like-named read-outs stand apart in the source and are kept apart here.

The values below come from paper PMC6155626 (Molecules : A Journal of Synthetic Chemistry and Natural …, 2016).

One data set deals with Ralstonia solanacearum. Description: microbe, parasite or virus in culture. The class given is cell-based. The conditions noted are these: for EC50 / Inhibition rate: R. solanacearum; for inhibition at 100 µg/mL / inhibition at 200 µg/mL: read-out: Inhibition rate; for Inhibition rate: average of three replicates.
Data set [1] has as its system rice seeds (Fengyou Xiangzhan).
In data set [2] the test system is Xanthomonas axonopodis pv. citri. Kind of data set: microbe, parasite or virus in culture. The class given is cell-based. The note with it: for inhibition at 100 µg/mL / inhibition at 200 µg/mL: read-out: Inhibition rate.
A further data set relates to tobacco leaves. The note with it: in vivo.
Data set [3] deals with Xanthomonas oryzae pv. oryzae. Description: microbe, parasite or virus in culture. The class given is cell-based. The note with it: for inhibition at 100 µg/mL: read-out: Inhibition rate, X. oryzae, 100 μg/mL, average of three replicates; for inhibition at 200 µg/mL: read-out: Inhibition rate, X. oryzae, 200 μg/mL, average of three replicates; for Inhibition rate: average of three replicates.

In a further data set the test system is X. oryzae in rice plant. The class given is in vivo, Xanthomonas oryzae pv. oryzae. The conditions noted are these: 200 μg/mL, 14 days after spraying.

With `CS(=O)(=O)c1nnc(COc2ccc(Cl)cc2Cl)o1` [Compound 5I-4, 2-((2,4-Dichlorophenoxy)methyl)-5-(methylsulfonyl)-1,3,4-oxadiazole], the concentration giving a half-maximal response (EC50) with Ralstonia solanacearum (Ralstonia solanacearum) was 20.5 ± 1.56 µg/mL (≈ 63.5 µM); in data set [2] (Xanthomonas axonopodis), 49 ± 2.34 µg/mL (≈ 152 µM); in data set [3] (Xanthomonas oryzae), 0.72 ± 0.15 µg/mL (≈ 2.23 µM). Also, the inhibition at 100 µg/mL came to 100% with Ralstonia solanacearum (Ralstonia solanacearum), 48% in data set [2] (Xanthomonas axonopodis) and 100% in data set [3] (Xanthomonas oryzae). Also, the figures for the inhibition at 200 µg/mL (in the data set on Ralstonia solanacearum (Ralstonia solanacearum); in data set [2] (Xanthomonas axonopodis); in data set [3] (Xanthomonas oryzae)) were 100%, 69% and 100%, respectively. Further, the “Phenotypic effect on rice seedlings, root growth and shoot development (in words)” value was “severely inhibited both root growth and shoot development even at the lowest concentration 1 μM” in data set [1] (Fengyou Xiangzhan, rice, in vivo); “highly suppressed both root and shoot development” in data set [1] (concentration (1–300 μM)). Besides, the “Necrosis (lesion diameter) on tobacco leaves” value in the data set on tobacco leaves (Nicotiana benthamiana (tobacco)) is 0.2–0.3 cm. Besides, in the data set with tobacco leaves, the “Phytotoxic effect on tobacco plant (in words)” value is “no or negligible phytotoxic effect”. In the data set with X. oryzae in rice plant, this molecule came in with a Morbidity of 100.0%.
On to `CS(=O)(=O)c1nnc(COc2ccc(F)cc2)s1` [Compound 5II-1, 2-((4-Fluorophenoxy)methyl)-5-(methylsulfonyl)-1,3,4-thiadiazole], for which the melting point lay within 107 to 109 °C. Besides, in the data set with Ralstonia solanacearum (Ralstonia solanacearum), the inhibition at 100 µg/mL was 49% and the inhibition at 200 µg/mL came to 50%. Besides, in data set [2] (Xanthomonas axonopodis), the inhibition at 100 µg/mL is 36% and the inhibition at 200 µg/mL is 40%. In data set [3] (X. oryzae, 200 μg/mL), this molecule registered an Inhibition rate of 99%. In data set [3] (Xanthomonas oryzae), the inhibition at 100 µg/mL stood at 92% and the inhibition at 200 µg/mL lay in the range of 84 to 99%.
On to `Nc1nnc([S-])s1.Nc1nnc([S-])s1.[Cu+2]` [Thiodiazole-copper, 2-amino-5-mercapto-1,3,4-thiadiazole-copper, reference compound], for which the results for the EC50 (in the data set with Ralstonia solanacearum; in data set [2]; in data set [3] (X. oryzae)) were >200 µg/mL, 107.04 ± 1.96 µg/mL and 121.82 ± 3.59 µg/mL, respectively. For the same molecule, the Inhibition rate in the data set with Ralstonia solanacearum (100 μg/mL) is 35%; with Ralstonia solanacearum (200 μg/mL) it was 50%; in data set [2] it was 65% and 47%; in data set [3] (X. oryzae, 100 μg/mL), 35%; in data set [3] (X. oryzae, 200 μg/mL), 69%. Moreover, in the data set with X. oryzae in rice plant, the “Disease Index” value is on record as 55.6. The molecule further had a Morbidity in the data set on X. oryzae in rice plant of 100.0%. Besides, the “Protective Efficiency” value was determined as 32.0 ± 3.0% in the data set on X. oryzae in rice plant and 32.0% in the data set on X. oryzae in rice plant (listed as Thiadiazole-copper).
The molecule `CS(=O)(=O)c1nnc(COc2ccc(Cl)cc2Cl)s1` [Compound 5II-4, 2-((2,4-Dichlorophenoxy)methyl)-5-(methylsulfonyl)-1,3,4-thiadiazole] yielded a melting point of 160 to 162 °C. In the data set on Ralstonia solanacearum (Ralstonia solanacearum), the inhibition at 100 µg/mL amounted to 15% and the inhibition at 200 µg/mL came out at 18%. Also, in data set [2] (Xanthomonas axonopodis), the inhibition at 100 µg/mL was 20% and the inhibition at 200 µg/mL was found to be 23%. Further, in data set [3] (Xanthomonas oryzae), the inhibition at 100 µg/mL was 18% and the inhibition at 200 µg/mL amounted to 16%.
The molecule `O=S(=O)(Cc1ccccc1)c1nnc(COc2ccc(Cl)cc2Cl)o1` [Compound 5I-12, 2-(Benzylsulfonyl)-5-((2,4-dichlorophenoxy)methyl)-1,3,4-oxadiazole] displayed a melting point of 121 to 122 °C. Further, in the data set with Ralstonia solanacearum (Ralstonia solanacearum), the inhibition at 100 µg/mL is 20% and the inhibition at 200 µg/mL came to 33%. In data set [2] (Xanthomonas axonopodis), the inhibition at 100 µg/mL amounted to 23% and the inhibition at 200 µg/mL worked out at 26%. In data set [3] (Xanthomonas oryzae), the inhibition at 100 µg/mL was determined as 70% and the inhibition at 200 µg/mL was 98%.
In turn, `O=S(=O)(Cc1ccccc1)c1nnc(COc2ccc(Br)cc2)o1` [Compound 5I-11, 2-(Benzylsulfonyl)-5-((4-bromophenoxy)methyl)-1,3,4-oxadiazole] had a melting point of 142 to 143 °C. Also, in the data set with Ralstonia solanacearum (Ralstonia solanacearum), the inhibition at 100 µg/mL was 13% and the inhibition at 200 µg/mL was 18%. In addition, in data set [2] (Xanthomonas axonopodis), the inhibition at 100 µg/mL worked out at 16% and the inhibition at 200 µg/mL came out at 11%. Further, in data set [3] (Xanthomonas oryzae), the inhibition at 100 µg/mL came out at 38% and the inhibition at 200 µg/mL was found to be 56%.
As to `CS(=O)(=O)c1nnc(COc2ccc(Br)cc2)s1` [Compound 5II-3, 2-((4-Bromophenoxy)methyl)-5-(methylsulfonyl)-1,3,4-thiadiazole], the melting point was 114 to 115 °C. Also, in the data set with Ralstonia solanacearum (Ralstonia solanacearum), the inhibition at 100 µg/mL worked out at 7% and the inhibition at 200 µg/mL was found to be 26%. For the same molecule, in data set [2] (Xanthomonas axonopodis), the inhibition at 100 µg/mL came out at 18% and the inhibition at 200 µg/mL amounted to 25%. In data set [3] (Xanthomonas oryzae), the inhibition at 100 µg/mL was 28% and the inhibition at 200 µg/mL turned out to be 30%.
For `O=S(=O)(Cc1ccccc1)c1nnc(COc2ccc(Cl)cc2)s1` [Compound 5II-9, 2-(Benzylsulfonyl)-5-((4-chlorophenoxy)methyl)-1,3,4-thiadiazole], the melting point was 140 to 141 °C. Besides, in the data set on Ralstonia solanacearum (Ralstonia solanacearum), the inhibition at 100 µg/mL came out at 18% and the inhibition at 200 µg/mL is 17%. For the same molecule, in data set [2] (Xanthomonas axonopodis), the inhibition at 100 µg/mL came out at 23% and the inhibition at 200 µg/mL came out at 14%. In data set [3] (Xanthomonas oryzae), the inhibition at 100 µg/mL was 14% and the inhibition at 200 µg/mL was determined as 19%.
`O=S(=O)(Cc1ccccc1)c1nnc(COc2ccc(Br)cc2)s1` [Compound 5II-10, 2-(Benzylsulfonyl)-5-((4-bromophenoxy)methyl)-1,3,4-thiadiazole] gave a melting point of 147 to 148 °C. For the same molecule, in the data set on Ralstonia solanacearum (Ralstonia solanacearum), the inhibition at 100 µg/mL amounted to 1% and the inhibition at 200 µg/mL stood at 11%. In addition, in data set [2] (Xanthomonas axonopodis), the inhibition at 100 µg/mL is 8% and the inhibition at 200 µg/mL was determined as 5%. Moreover, in data set [3] (Xanthomonas oryzae), the inhibition at 100 µg/mL came out at 0% and the inhibition at 200 µg/mL is 10%.
In turn, `O=S(=O)(Cc1ccccc1)c1nnc(COc2ccc(Cl)cc2Cl)s1` [Compound 5II-11, 2-(Benzylsulfonyl)-5-((2,4-dichlorophenoxy)methyl)-1,3,4-thiadiazole] returned a melting point of 124 to 125 °C. In the data set with Ralstonia solanacearum (Ralstonia solanacearum), the inhibition at 100 µg/mL is 26% and the inhibition at 200 µg/mL amounted to 27%. In data set [2] (Xanthomonas axonopodis), the inhibition at 100 µg/mL came out at 32% and the inhibition at 200 µg/mL is 38%. In data set [3] (Xanthomonas oryzae), the inhibition at 100 µg/mL worked out at 14% and the inhibition at 200 µg/mL was 37%.
In the case of `Cc1cc(Cl)ccc1OCc1nnc(S(=O)(=O)Cc2ccccc2)o1` [Compound 5I-13, 2-(Benzylsulfonyl)-5-((4-chloro-2-methylphenoxy)methyl)-1,3,4-oxadiazole], the melting point was 144 to 145 °C. Moreover, in the data set on Ralstonia solanacearum (Ralstonia solanacearum), the inhibition at 100 µg/mL is 8% and the inhibition at 200 µg/mL worked out at 15%. Further, in data set [2] (Xanthomonas axonopodis), the inhibition at 100 µg/mL was 0% and the inhibition at 200 µg/mL was 7%. Moreover, in data set [3] (Xanthomonas oryzae), the inhibition at 100 µg/mL was found to be 13% and the inhibition at 200 µg/mL was 33%.
